In article PMC11495047 (Journal of Virology, 2024):
Like-named read-outs stand apart in the source and are kept apart here.

Tests used:
rCedV = assay: microbe, parasite or virus in culture; assay type: cell-based
rNiV = assay: microbe, parasite or virus in culture; assay type: cell-based
[1] = biological target: CedV vRdRp (rCedV TC-tr minigenome) (Cedar virus, UniProt J7GXK9); assay type: cell-based
[2] = in vivo; cited from earlier work
[3] = biological target: GhV vRdRp (rGhV TC-tr minigenome) (Ghana virus, UniProt H9M6P4); assay type: cell-based
[4] = biological target: NiV vRdRp (rNiV TC-tr minigenome) (Nipah virus, UniProt Q997F0)

SMILES | IC50 (rCedV; Cedar virus, BSR-T7/5, 24 h) [nM] | IC50 (rNiV) [nM] | IC50 (rNiV; Henipavirus nipahense, BHK) [nM] | IC50 [1] [nM] | IC50 (rCedV; read-out: IC50) [nM] | oral bioavailability [2] | IC50 [3] [nM] | IC50 ([1]; read-out: IC50) [nM] | susceptibility of rNiV TC-tr minigenome [4]
O=c1ccn([C@@H]2O[C@](F)(CO)[C@@H](O)[C@H]2O)c(=O)[nH]1 [EIDD-2749, 4′-Fluorouridine] | 700 | 2900 | 2600 | 2100 | – | – | – | – | –
NC(=O)c1c(F)cccc1-c1cccc2cnccc12 [GHP-88309] | – | – | – | – | 1600 | high oral bioavailability | 1700 | 5700 | no susceptibility
